Here are results for 69 compounds from PubChem BioAssay AID179 (DTP/NCI, 2004).

In this experiment the test system is CEM cells HIV-1 protection, formazan growth assay. Kind of experiment: NCI AIDS Antiviral Assay. As to conditions: for IC50: measured here: growth of uninfected CEM cells. In short, it runs like this: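 Protection of CEM cells against HIV-1 measured as cell growth via soluble formazan read-out, with five concentrations tested on both infected and uninfected cells; failure to protect may reflect toxicity.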

The structures appear in SMILES notation. Several values for one entry are separate records, joined by “and”; a condition that tells them apart may be missing. Equal values may be shown once. Activity calls are given as the source filed them.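 Rule for the calls: active = compounds giving half or more protection of infected cells from virus-caused growth loss, again on retest; inactive = the rest.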 Where a SMILES comes first, the peptide text is derived from it. Bridges are numbered along the chain shown (N, C = ends). Roman numbers before positions name the chains, in order. The star is where a group is joined. Boc = CC(C)(C)OC(=O)*; OBn = c1ccc(CO*)cc1 Bounds are passed on as bounds.

Consider `COC1(CC[C@H](C)COC2OC(CO)C(O)C(O)C2O)O[C@H]2C[C@H]3[C@@H]4CC=C5C[C@@H](OC6OC(CO)C(O)C(OC7OC(CO)C(O)C(O)C7O)C6OC6OC(C)C(O)C(O)C6O)CC[C@]5(C)[C@H]4CC[C@]3(C)[C@H]2[C@@H]1C` (stereo partly drawn), for which the EC50 was greater than 200 µM and the IC50 was determined as 3.89 µM.

Regarding `[O]=[Sb][c]1ccc(Br)cc1`, the concentration for a half-maximal effect (EC50) is greater than 200 µM and the 50% inhibitory concentration (IC50) is 4.57 µM.

Turning to `O=C(NCCc1ccccc1)c1c(O)c2ccccc2[nH]c1=O`, the EC50 is greater than 200 µM and the IC50 is greater than 200 µM.

On to `O=c1c(-c2nn[nH]n2)cnc2sc3cc(Cl)ccc3n12`, for which the EC50 is greater than 200 µM and the IC50 was 89.1 µM.

Regarding `CC1(O)C=CC(=O)C=C1`, the EC50 is greater than 2000 µM and the half-maximal inhibitory concentration (IC50) was determined as 3.47 µM.

Consider `CN(C)/C=N/c1cc(=O)n(C)c(=O)n1C`, for which the outcome was inactive.

For `CC(C)(c1cc(Cl)c(O)c(CN2CCOCC2)c1)c1cc(Cl)c(O)c(CN2CCOCC2)c1`, the EC50 is greater than 200 µM and the concentration for half-maximal inhibition (IC50) came to 107 µM.

Regarding `COC(=O)CCC1=C(C)c2cc3[n-]c(cc4nc(cc5[n-]c(cc1n2)c(CCC(=O)OC)c5C)C(C(C)=O)=C4C)c(C(C)=O)c3C.[Ni+2]`, the EC50 was greater than 100 µM and the IC50 was greater than 100 µM.

Consider `CC/C(Cl)=N\OC(=O)Nc1ccccc1OC(F)(F)F`, for which the EC50 is greater than 20 µM and the concentration for half-maximal inhibition (IC50) is 3.16 µM.

With `COc1ccc2[nH]c3c(C)c4ccnc(NCCCN(C)CCCNc5ccc6nnn7c8ccccc8c(=O)c5c67)c4c(C)c3c2c1`, the EC50 was greater than 0.1 µM and the IC50 is 0.0316 µM.

Turning to `O=C(O)c1cc2ccccc2c(N=Nc2ccc(/C=C/c3ccc(N=Nc4c(O)c(C(=O)O)cc5ccccc45)cc3S(=O)(=O)O)c(S(=O)(=O)O)c2)c1O`, the EC50 was 8.51 µM and the concentration for half-maximal inhibition (IC50) came out at 50.1 µM.

For `CC1CN=C(N(C(=O)Nc2ccccc2)C2CCCCC2)S1` (stereo not drawn), the outcome was inactive.

Take `O=P1(c2ccccc2)CCCCC1`: the EC50 is 0.0631 µM and the IC50 was greater than 200 µM.

On to `CCCCNC(=O)CCN(C(=O)O)S(=O)(=O)c1ccc(NC(=O)c2ccccc2)cc1`, for which the EC50 was greater than 112 µM and the IC50 was greater than 112 µM.

Regarding `CO/C(N)=C(\C#N)N=Cc1ccc2ccccc2c1`, the EC50 was greater than 200 µM and the half-inhibitory concentration (IC50) amounted to 37.2 µM.

Take `CC(=O)OC[C@@H](OC(C)=O)[C@@H](OC(C)=O)[C@H]1OC[C@@H]2C[C@H]([C@H]1OC(C)=O)N(Cc1ccccc1)O2`: the EC50 was 93.3 µM and the IC50 was greater than 200 µM.

For `NC(=O)CC1C(CO)OC(n2ccc(=O)[nH]c2=O)C1O` (stereo not drawn), the EC50 is greater than 200 µM and the IC50 is greater than 200 µM.

Regarding `Cc1nnc(N)nc1/C=C/c1c(O)ccc2ccccc12`, the EC50 was greater than 200 µM and the concentration for half-maximal inhibition (IC50) amounted to 26.3 µM.

In the case of `CC(NC(=O)CNC(=O)OC(C)(C)C)C(=O)NC(Cc1ccccc1)C(=O)OCc1ccccc1` (stereo not drawn) (Boc-Gly-Ala-Phe-OBn; configuration not given here), the EC50 was greater than 200 µM and the IC50 stood at 77.6 µM.

For `O=C(CC(=O)C1CCOC1=O)C(=O)Nc1cccc(Cl)c1` (stereo not drawn), the result was inactive.

Regarding `Cc1ccc(-c2n[nH]c(=O)n2N2C(=O)C=CC2=O)cc1`, the 50% effective concentration (EC50) was 49 µM and the IC50 was 501 µM.

As for `CC1(C)SC2C(NC(=O)C(C(=O)O)c3ccccc3)C(=O)N2C1C(=O)O` (stereo not drawn), the EC50 was greater than 200 µM and the IC50 was greater than 200 µM.

With `COc1ccc2nc(N/N=C/c3ccc(C)s3)cc(C)c2c1`, the EC50 is greater than 200 µM and the 50% inhibitory concentration (IC50) worked out at 12.9 µM.

As for `O=c1[nH]c(=O)n(COC(CO)CO)cc1-c1ccccc1`, the EC50 is greater than 200 µM and the half-inhibitory concentration (IC50) is greater than 200 µM.

Consider `CCCCCCCCCCCC(=O)OC(COC(N)=O)COc1ccc(Cl)cc1` (stereo not drawn), for which the EC50 was greater than 12.3 µM and the concentration for half-maximal inhibition (IC50) was greater than 12.3 µM.

In the case of `O=C(NC1=C(Cl)C(=O)c2ccccc2C1=O)C(=O)C(C(=O)c1ccc2ccccc2c1)C1OC(=O)c2ccccc21` (stereo not drawn), the EC50 is greater than 45.7 µM and the IC50 came out at 11.5 µM.

Turning to `CCOC(=O)C(C)(c1c(C)[nH]c2ccccc12)c1c(C)[nH]c2ccccc12`, the result was inactive.

Regarding `N#Cc1ccccc1NC(=O)/C(=N\N)C(C(=O)c1ccncc1)C1OC(=O)c2ccccc21` (stereo not drawn), the outcome was inactive.

For `CC(C)CC12CC3CCC(CNC1=O)C32C` (stereo not drawn), the result was inactive.

On to `COc1cc2c3cc1Oc1c(OC)c(OC)cc4c1C(Cc1ccc(cc1)Oc1cc(ccc1O)CC3N(C)CC2)N(C)CC4` (stereo not drawn), for which the EC50 was greater than 22.4 µM, the result was inactive and the IC50 was greater than 22.4 µM.

As for `Cn1c(=O)c(Br)c(C=O)n(CCO[N+](=O)[O-])c1=O`, the EC50 was greater than 200 µM and the IC50 is 1.78 µM.

With `O=c1c2c(oc3ccccc13)-c1ccccc1OC2`, the EC50 was greater than 200 µM and the half-inhibitory concentration (IC50) was greater than 200 µM.

Consider `C=CCC(CC=O)(C(=O)OCC)C(=O)OCC`, for which the EC50 was greater than 200 µM and the IC50 came to 110 µM.

For `N.N.N.N.N.NC(=O)c1nn[n-]n1.[Cl-].[Co+3]`, the EC50 is greater than 759 µM and the IC50 was greater than 759 µM.

On to `Cc1cc(O)oc(=O)c1`, for which the EC50 was greater than 2000 µM and the IC50 was greater than 2000 µM.

For the compound `CCCCNC(=S)Nn1c(-c2ccccc2)nc2ccccc2c1=O`, the EC50 was greater than 20.4 µM and the concentration for half-maximal inhibition (IC50) was greater than 20.4 µM.

As for `O=C1c2ccccc2C2(O)Nc3c(ccc4ccccc34)C12O` (stereo not drawn), the EC50 was greater than 832 µM and the IC50 stood at 45.7 µM.

With `CCC1CCC2c3c([nH]c4ccccc34)C3C(=O)N(c4ccc(OC)cc4)C(=O)C3C2C1` (stereo not drawn), the 50% effective concentration (EC50) was 33.9 µM and the IC50 is greater than 200 µM.

Turning to `CC(=O)OC1c2ccccc2C2c3ccccc3C1C2(C)C(Cl)(Cl)Cl` (stereo not drawn), the EC50 was greater than 13.2 µM and the half-maximal inhibitory concentration (IC50) is greater than 13.2 µM.

Regarding `CC(=O)Oc1cccc2c1ccc1nonc12`, the EC50 was greater than 174 µM and the IC50 stood at 28.2 µM.

On to `Cc1nc(N(CCO)CCO)c2sc(=S)n(-c3ccccc3)c2n1`, for which the EC50 is greater than 10.5 µM and the IC50 was greater than 10.5 µM.

Consider `CC(=O)OCc1ccc2c(c1)C(O)NC(=O)O2` (stereo not drawn), for which the EC50 is greater than 200 µM and the half-inhibitory concentration (IC50) was 105 µM.

Regarding `CC(=O)NNc1nc(C)c(C(=O)/C=C/c2ccccc2Cl)s1`, the EC50 was greater than 77.6 µM and the IC50 came out at 58.9 µM.

As to `CC1(c2cccc([N+](=O)[O-])c2)C(C#N)C(=O)NC(=O)C1C#N` (stereo not drawn), the EC50 is greater than 417 µM and the IC50 was 245 µM.

For the compound `CC(C)C(NC(=O)C(N)CSSCC(N)C(=O)NC(C(=O)O)C(C)C)C(=O)O` (stereo not drawn) (I: H-Cys-Val-OH / II: H-Cys-Val-OH; disulfide I:1-II:1; configuration not given here), the result was inactive.

For the compound `C=C(CCCO)[C@@H]1CC[C@](C)(O)[C@H]1C`, the result was inactive.

`Cc1noc(NS(=O)(=O)c2ccc(N=c3c4ccccc4n(C)c4ccccc34)cc2)c1C`: the result was inactive.

For `CC(=O)c1cc(S(=O)(=O)c2ccc(O)c(C(C)=O)c2)ccc1O`, the EC50 was greater than 200 µM and the IC50 worked out at 42.7 µM.

Regarding `CCN(CC)CCCC(C)Nc1cc(-c2ccccc2)nc2ccccc12` (stereo not drawn), the EC50 is greater than 17.8 µM and the IC50 came out at 7.76 µM.

On to `CS(=O)(=O)CSCSSCS(C)(=O)=O`, for which the EC50 was greater than 427 µM and the IC50 is 20 µM.

Turning to `CN1CCN(C(=S)N(C)C(=O)c2ccco2)CC1`, the EC50 is greater than 933 µM and the half-inhibitory concentration (IC50) is greater than 933 µM.

For the compound `N#CC(C#N)=Cc1cccc(Oc2ccccc2)c1`, the EC50 is greater than 29.5 µM and the IC50 was greater than 29.5 µM.

As for `CCOC(=O)N1CCN(C(=O)COc2cc3c(O)c4c(O)c(C)c5c(c24)C(=O)C(C)(O/C=C/C(OC)C(C)C(OC(C)=O)C(C)C(O)C(C)C(O)C(C)/C=C/C=C(\C)C(=O)N3)O5)CC1` (stereo not drawn), the EC50 was greater than 200 µM and the IC50 was determined as 13.5 µM.

As for `C=C1CC(C)(COc2cc(=O)oc3ccccc23)OC1=O` (stereo not drawn), the EC50 was greater than 200 µM and the half-maximal inhibitory concentration (IC50) worked out at 1.74 µM.

Turning to `CC1SC2=NC3=C(c4ccccc4C3=O)C(c3ccc(Cl)cc3)N2C1=O` (stereo not drawn), the EC50 was greater than 35.5 µM and the IC50 is greater than 35.5 µM.

With `N#CC(/C=C/c1ccccc1)Nc1ccccc1N` (stereo not drawn), the EC50 is greater than 28.8 µM and the IC50 is greater than 28.8 µM.

As to `O=C1/C(=C\c2cccc(Oc3ccccc3)c2)S(=O)(=O)C(c2ccccc2)N1c1cccc(Cl)c1` (stereo not drawn), the EC50 was greater than 200 µM and the IC50 turned out to be 12.9 µM.

For `CC(C)(C)OC(=O)NC(Cc1ccc([N+](=O)[O-])cc1)C(=O)NC(CCCCNC(=O)OCc1ccccc1)C(=O)ON1C(=O)CCC1=O` (stereo not drawn), the EC50 was greater than 200 µM and the IC50 came out at 56.2 µM.

In the case of `COc1c(OCc2ccccc2)c(OCc2ccccc2)cc(CO)c1-c1c(CO)cc(OCc2ccccc2)c(OCc2ccccc2)c1OC`, the EC50 is greater than 2.88 µM and the IC50 is greater than 2.88 µM.

In the case of `C=C=C(C(=O)OC)S(=O)c1ccc([N+](=O)[O-])cc1[N+](=O)[O-]` (stereo not drawn), the result was inactive.

Consider `COc1ccc(/C=C2/C(=O)N(C(=O)c3ccc(Cl)cc3)N=C2C)cc1OC`, for which the EC50 is greater than 35.5 µM and the half-inhibitory concentration (IC50) is greater than 35.5 µM.

With `COC(=O)c1cc(C(=CCCc2ccccc2)c2cc(Br)c(OC)c(C(=O)OC)c2)cc(Br)c1OC`, the EC50 is greater than 200 µM and the IC50 was determined as 11.2 µM.

For `C1CCC(N2OC23CCCCC3)CC1` (stereo not drawn), the outcome was inactive.

Regarding `O=C1CCC2(c3ccc(Cl)cc3)Nc3cc([N+](=O)[O-])ccc3N12` (stereo not drawn), the EC50 was greater than 21.9 µM and the IC50 was greater than 21.9 µM.

For the compound `O=C1/C(=C/c2ccc(Cl)c(Cl)c2)CCC/C1=C\c1ccc(Cl)c(Cl)c1`, the EC50 is greater than 50.1 µM and the IC50 was determined as 2.95 µM.

As for `COc1cc2c(cc1O)[C@H]1COc3ccccc3[C@H]1O2`, the EC50 was greater than 93.3 µM and the concentration for half-maximal inhibition (IC50) is 4.9 µM.

Regarding `CCOC(=O)CSc1cc(C)c2c(N)c(C(=O)OCC)sc2n1`, the EC50 is greater than 72.4 µM and the half-inhibitory concentration (IC50) is greater than 72.4 µM.

Take `CC(CC12C=CC3(OO1)C(C)(C)CCCC3(C)O2)OC(=O)c1ccccc1` (stereo not drawn): the EC50 was greater than 200 µM; the IC50 is 7.08 µM and 11.2 µM.

Turning to `O=C1N=C2SC=C(NC(=S)Nc3ccccc3)N2NC12c1ccccc1-c1ccccc12`, the EC50 was greater than 200 µM and the IC50 turned out to be 74.1 µM.

In general, EC50 refers to the concentration giving half of the maximal effect. A word on the IC50: it is the concentration that gives 50% inhibition. Lower therefore signals greater potency in that assay.
